Assays:
[1] = molecular target: T1, Aromatase (Homo sapiens, UniProt P11511); experiment: Inhibition of aromatase in human placental microsomes assessed as tritiated water release after 15 mins using [1-beta, 3H]androstenedione as substrate by scintillation counting; parameters: species or system Placenta
T1 sequence (P11511 whole entry): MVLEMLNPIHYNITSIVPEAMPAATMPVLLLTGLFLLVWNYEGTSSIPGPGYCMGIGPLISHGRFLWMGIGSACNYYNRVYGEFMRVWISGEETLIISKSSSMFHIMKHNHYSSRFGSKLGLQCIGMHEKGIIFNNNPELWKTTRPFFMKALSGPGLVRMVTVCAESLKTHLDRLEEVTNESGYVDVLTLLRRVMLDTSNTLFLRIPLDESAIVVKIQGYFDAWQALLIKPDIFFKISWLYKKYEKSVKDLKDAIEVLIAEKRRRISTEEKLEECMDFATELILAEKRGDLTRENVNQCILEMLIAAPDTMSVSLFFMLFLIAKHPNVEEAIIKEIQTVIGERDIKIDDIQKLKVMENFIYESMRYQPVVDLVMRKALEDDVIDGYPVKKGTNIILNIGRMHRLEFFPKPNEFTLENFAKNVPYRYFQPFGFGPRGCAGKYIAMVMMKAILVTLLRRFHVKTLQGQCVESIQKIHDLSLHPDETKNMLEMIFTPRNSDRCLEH

[2] = molecular target: T1, Aromatase; experiment: Inhibition of aromatase at 40.7 uM
[3] = molecular target: T1, Aromatase; experiment: Inhibition of aromatase

Row | Structure (SMILES) | IC50 [1] [µM] | inhibition at 40.7 µM [2] [%] | IC50 [3] [µM]
1 | CC(=O)O[C@H]1CC[C@]2(C)[C@H]3CC=C4[C@@H]5[C@@H](C)[C@H](C)CC[C@]5(C(=O)NCCCN5CCN(CCCN)CC5)CC[C@@]4(C)[C@]3(C)CC[C@H]2C1(C)C | < 500 |  | 
2 | C[C@H]1[C@H](C)CC[C@]2(C(=O)O)CC[C@]3(C)C(=CC[C@@H]4[C@@]5(C)CC/C(=N\O)C(C)(C)[C@@H]5CC[C@]43C)[C@H]12 | > 500 |  | 
3 | C[C@H]1[C@H](C)CC[C@]2(C(=O)O)CC[C@]3(C)C(=CC[C@@H]4[C@@]5(C)CCC(=O)NC(C)(C)[C@@H]5CC[C@]43C)[C@H]12 | > 500 |  | 
4 | C[C@]12CCC(=O)C(O)=C1CC[C@@H]1[C@@H]2CC[C@]2(C)C(=O)CC[C@@H]12 [FORMESTANE] | 0.8 |  | 
5 | C[C@H]1[C@H](C)CC[C@]2(C(=O)O)CC[C@]3(C)C(=CC[C@@H]4[C@@]5(C)CCC(=O)C(C)(C)[C@@H]5CC[C@]43C)[C@H]12 [URSONIC ACID] | > 500 |  | 
6 | C=C(C)[C@@H]1CC[C@]2(C)[C@H](CC=C3[C@@H]4[C@@H](C)[C@H](C)CC[C@]4(C(=O)O)CC[C@]32C)[C@@]1(C)CCC#N | > 500 |  | 
7 | CC1(C)CC[C@]2(C(=O)O)CC[C@]3(C)C(=CC[C@@H]4[C@@]5(C)CC[C@H](O)C(C)(C)[C@@H]5CC[C@]43C)[C@@H]2C1 [OLEANOLIC_ACID] |  | 12 | 
8 | C[C@H]1[C@H](C)CC[C@]2(C(=O)O)CC[C@]3(C)C(=CC[C@@H]4[C@@]5(C)CC[C@H](O)C(C)(C)[C@@H]5CC[C@]43C)[C@H]12 [URSOLIC ACID] | 32 | 12 | 30.7
9 | C[C@H]1[C@H](C)CC[C@]2(C(=O)NCCCN3CCN(CCCN)CC3)CC[C@]3(C)C(=CC[C@@H]4[C@@]5(C)CC[C@H](O)C(C)(C)[C@@H]5CC[C@]43C)[C@H]12 | < 500 |  | 
10 | CC(=O)O[C@H]1CC[C@]2(C)[C@H]3CC=C4[C@@H]5[C@@H](C)[C@H](C)CC[C@]5(C(=O)O)CC[C@@]4(C)[C@]3(C)CC[C@H]2C1(C)C [O-ACETYLURSOLIC ACID] |  |  | 85.6
